Experimental data taken from patent publication US20230348424A1, “HETEROCYCLIC COMPOUNDS AND METHODS OF USE” (Schrödinger, Inc., priority 2022, published 2023).
pIC50: −log10 of the molar value.

Biological target: SOS1:KRAS (G12C) interaction (Homo sapiens (Human), UniProt Q07889)
Assay: SOS1 KRas(G12C) FRET Assay
Assay type: binding
Conditions: 0.5 nM His10-SOS1 (res. 564-1049), 2.5 nM GST-KRAS G12C (res. 1-169), 2 hrs at RT
Method: Inhibition of the SOS 1:KRAS interaction was measured using purified GST-tagged KRAS (res. 1-169, G12C, purified based on Hillig, et al., Proc Natl Acad Sci USA (2019); 116(7):2551-2560) and recombinant His10-SOS1 (res. 564-1049; purified based on Hillig, et al.). The final assay was performed at 20 uL with 0.5 nM SOS1 protein and 2.5 nM KRAS protein in a buffer of PBS, 0.1% BSA, 5 mM MgCh, 0.0025% Igepal, 100 mM KF, 5 mM DTT in a white 384 square well OptiPlate (PerkinElmer, Cat. 6007290). A 2x KRAS working solution was prepared in an assay buffer containing 5 nM GST-KRAS G12C and 2 nM anti-GST-Eu(K) (Cisbio, Cat. 61GSTKLA) and pre-incubated for 15 minutes at 25° C. […] The final DMSO concentration is 0.5%. Plates were incubated at RT for 2 hrs before the FRET signal was measured using Envision at emission 665 nm and 615 nm. FRET signal was converted to percentage of protein-protein interaction using the following equation:
• C: signal with compound treatment • P: signal for positive control (DMSO) • N: signal for negative control (no SOS1 added)
IC50 and Hill coefficients were obtained using Graph Pad Prism (Graph Pad software, Inc, USA) with non-linear regression analysis.

Chain of SOS1:KRAS (G12C) interaction (Q07889 564-1049, stated change not applied): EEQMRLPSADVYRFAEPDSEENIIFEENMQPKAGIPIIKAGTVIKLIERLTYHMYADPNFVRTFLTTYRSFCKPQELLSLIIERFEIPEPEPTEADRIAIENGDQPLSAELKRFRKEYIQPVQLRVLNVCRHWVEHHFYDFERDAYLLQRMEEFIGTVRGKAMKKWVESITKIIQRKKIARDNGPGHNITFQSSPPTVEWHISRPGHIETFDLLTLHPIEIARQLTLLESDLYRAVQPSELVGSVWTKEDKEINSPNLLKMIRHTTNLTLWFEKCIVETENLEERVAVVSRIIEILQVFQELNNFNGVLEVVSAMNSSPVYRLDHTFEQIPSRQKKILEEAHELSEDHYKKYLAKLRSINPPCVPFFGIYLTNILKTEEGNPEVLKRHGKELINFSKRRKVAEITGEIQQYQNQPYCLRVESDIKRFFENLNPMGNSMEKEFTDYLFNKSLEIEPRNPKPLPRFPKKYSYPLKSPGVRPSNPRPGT

SMILES | pIC50
C[C@@H](NC(=O)c1cn([C@@H]2CCC2(F)F)c(=O)cc1N[C@H]1[C@@H]2CC[C@H]1CN(C)C2)c1cccc(C(F)F)c1F [Example 213, 1-((R)-2,2-difluorocyclobutyl)-N-((R)-1-(3-(difluoromethyl)-2-fluorophenyl)ethyl)-4-(((1R,5S,8r)-3-methyl-3-azabicyclo[3.2.1]octan-8-yl)amino)-6-oxo-1,6-dihydropyridine-3-carboxamide] | 6.83
C[C@@H](NC(=O)c1cn(C2(C(F)F)CC2)c(=O)cc1N[C@H]1[C@@H]2CN(C3CC3)C[C@@H]21)c1cccc(C(F)F)c1F [Example 60, 4-(((1R,5S,6s)-3-cyclopropyl-3-azabicyclo[3.1.0]hexan-6-yl)amino)-N-((R)-1-(3-(difluoromethyl)-2-fluorophenyl)ethyl)-1-(1-(difluoromethyl)cyclopropyl)-6-oxo-1,6-dihydropyridine-3-carboxamide] | 7.39
Cc1c([C@@H](C)NC(=O)c2cn(C3CCOCC3)c(=O)cc2SC2CCNCC2)cccc1C(F)(F)F [Example 157, (R)-N-(1-(2-methyl-3-(trifluoromethyl)phenyl)ethyl)-6-oxo-4-(piperidin-4-ylthio)-1-(tetrahydro-2H-pyran-4-yl)-1,6-dihydropyridine-3-carboxamide] | 6.66
C[C@@H](NC(=O)c1cn([C@H]2CC2(F)F)c(=O)cc1N[C@H]1[C@@H]2CN(C)C[C@@H]21)c1cccc(C(F)(F)F)c1F (single isomer, unassigned) [Example 200] | 7.78
C[C@@H](NC(=O)c1cn(C2(C(F)F)CC2)c(=O)cc1NCC12CC(O)(C1)C2)c1cccc(C(F)F)c1F [Example 182, (R)-N-(1-(3-(difluoromethyl)-2-fluorophenyl)ethyl)-1-(1-(difluoromethyl)cyclopropyl)-4-(((3-hydroxybicyclo[1.1.1]pentan-1-yl)methyl)amino)-6-oxo-1,6-dihydropyridine-3-carboxamide] | 7.47
C[C@@H](NC(=O)c1cn([C@H]2C[C@@H]2C)c(=O)cc1N[C@H]1[C@@H]2CN(C)C[C@@H]21)c1cccc(C(F)F)c1F (single isomer, unassigned) [Example 271] | 7.43
Cc1c([C@@H](C)NC(=O)c2cn(C3CCOCC3)c(=O)cc2NC2CCCn3cncc32)cccc1C(F)(F)F (stereo partly drawn) [Example 300, N-((R)-1-(2-methyl-3-(trifluoromethyl)phenyl)ethyl)-6-oxo-1-(tetrahydro-2H-pyran-4-yl)-4-((5,6,7,8-tetrahydroimidazo[1,5-a]pyridin-8-yl)amino)-1,6-dihydropyridine-3-carboxamide] | 7.68
C[C@@H](NC(=O)c1cn([C@H]2CCC2(F)F)c(=O)cc1N[C@@H]1[C@@H]2CC[C@H]1CN(C)C2)c1cccc(C(F)F)c1F [Example 211, 1-((S)-2,2-difluorocyclobutyl)-N-((R)-1-(3-(difluoromethyl)-2-fluorophenyl)ethyl)-4-(((1R,5S,8s)-3-methyl-3-azabicyclo[3.2.1]octan-8-yl)amino)-6-oxo-1,6-dihydropyridine-3-carboxamide] | 7.53
CC(NC(=O)c1cn(C2(C(F)F)CC2)c(=O)cc1NC1CCN(C)CC1)c1cccc(C(F)(F)F)c1Cl (centres unmarked) [Example 170, N-(1-(2-chloro-3-(trifluoromethyl)phenyl)ethyl)-1-(1-(difluoromethyl)cyclopropyl)-4-((1-methylpiperidin-4-yl)amino)-6-oxo-1,6-dihydropyridine-3-carboxamide] | 7.39
C[C@H](NC(=O)c1cn(C2(C(F)F)CC2)c(=O)cc1NC1CCN(C)CC1)c1ccc(F)c(C(F)(F)F)c1 (single isomer, unassigned) [Example 168] | 6.25
Cc1c([C@@H](C)NC(=O)c2cn(C3CCOCC3)c(=O)cc2NC[C@H]2CC[C@H](N(C)C)CC2)cccc1C(F)(F)F [Example 301, 4-((((1r,4R)-4-(dimethylamino)cyclohexyl)methyl)amino)-N-((R)-1-(2-methyl-3-(trifluoromethyl)phenyl)ethyl)-6-oxo-1-(tetrahydro-2H-pyran-4-yl)-1,6-dihydropyridine-3-carboxamide] | 7.34
C[C@@H](NC(=O)c1cn(C2(C(F)F)CC2)c(=O)cc1N[C@]12C[C@H]1CN(C)C2)c1cccc(C(F)F)c1F [Example 227, N-((R)-1-(3-(difluoromethyl)-2-fluorophenyl)ethyl)-1-(1-(difluoromethyl)cyclopropyl)-4-(((1R,5S)-3-methyl-3-azabicyclo[3.1.0]hexan-1-yl)amino)-6-oxo-1,6-dihydropyridine-3-carboxamide] | 7.21
C[C@@H](NC(=O)c1cn(C2CC3(C2)CC(F)(F)C3)c(=O)cc1N[C@H]1[C@@H]2CN(C)C[C@@H]21)c1cccc(C(F)F)c1F [Example 231, N-((R)-1-(3-(difluoromethyl)-2-fluorophenyl)ethyl)-1-(6,6-difluorospiro[3.3]heptan-2-yl)-4-(((1R,5S,6s)-3-methyl-3-azabicyclo[3.1.0]hexan-6-yl)amino)-6-oxo-1,6-dihydropyridine-3-carboxamide] | 7.99
C[C@@H](NC(=O)c1cn(C2(CF)CC2)c(=O)cc1NC1CCN(C)CC1)c1cccc(C(F)F)c1F [Example 77, (R)-N-(1-(3-(difluoromethyl)-2-fluorophenyl)ethyl)-1-(1-(fluoromethyl)cyclopropyl)-4-((1-methylpiperidin-4-yl)amino)-6-oxo-1,6-dihydropyridine-3-carboxamide] | 7.86
C[C@@H](NC(=O)c1cn(C2(C(F)F)CC2)c(=O)cc1N[C@H]1C[C@@H]2C[C@H]1CN2C)c1cccc(C(F)F)c1F (single isomer, unassigned) [Example 237] | 7.71
Cc1c([C@@H](C)NC(=O)c2cn(C3CCOCC3)c(=O)cc2NC2CCN(C)CC2(F)F)cccc1C(F)(F)F (stereo partly drawn) [Example 283, 4-((3,3-difluoro-1-methylpiperidin-4-yl)amino)-N-((R)-1-(2-methyl-3-(trifluoromethyl)phenyl)ethyl)-6-oxo-1-(tetrahydro-2H-pyran-4-yl)-1,6-dihydropyridine-3-carboxamide] | 6.86
CC(=O)N1CCC(C)(n2cc(C(=O)N[C@H](C)c3cccc(C(F)F)c3F)c(NC3CCN(C)CC3)cc2=O)C1 (stereo partly drawn) [Example 264, 1-(1-acetyl-3-methylpyrrolidin-3-yl)-N-((R)-1-(3-(difluoromethyl)-2-fluorophenyl)ethyl)-4-((1-methylpiperidin-4-yl)amino)-6-oxo-1,6-dihydropyridine-3-carboxamide] | 8.66
C[C@@H](NC(=O)c1cn(C2(C)CN(C(=O)C3CC3)C2)c(=O)cc1N[C@H]1[C@@H]2CN(C)C[C@@H]21)c1cccc(C(F)F)c1F [Example 270, 1-(1-(cyclopropanecarbonyl)-3-methylazetidin-3-yl)-N-((R)-1-(3-(difluoromethyl)-2-fluorophenyl)ethyl)-4-(((1R,5S,6s)-3-methyl-3-azabicyclo[3.1.0]hexan-6-yl)amino)-6-oxo-1,6-dihydropyridine-3-carboxamide] | 8.76
C[C@@H](NC(=O)c1cn(C23CC(C2)C3)c(=O)cc1N[C@H]1[C@@H]2CN(C)C[C@@H]21)c1cccc(C#N)c1Cl (single isomer, unassigned) [Example 177] | 7.25
C[C@@H](NC(=O)c1cn(C23CC(C2)C3)c(=O)cc1N)c1cccc(C(F)F)c1F [Example 190, (R)-4-amino-1-(bicyclo[1.1.1]pentan-1-yl)-N-(1-(3-(difluoromethyl)-2-fluorophenyl)ethyl)-6-oxo-1,6-dihydropyridine-3-carboxamide] | 6.50
